The text below walks through data of patent US8354402B2, “Polyarylcarboxamides useful as lipid lowering agents” (Janssen Pharmaceutica N.V., priority 2000, dated 2013).

The test system of the first assay is ApoB secretion, HepG2 cells. The experiment in a line: Quantification of the secretion of ApoB (HepG2 cells, immunoprecipitation, scintillation counting). Type of assay: cell-based. Conditions: 24 hours of incubation, listed as 240. The procedure, abridged:
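HepG2 cells in MEM Rega 3 with 10% FCS were treated at 70% confluency with compound (DMSO 0.4% final) for 24 h. Medium ApoB was immunoprecipitated with sheep anti-apoB then rabbit anti-sheep antibody (24 h each, 8° C), and pellet radioactivity was counted by liquid scintillation to give IC50.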
By pIC50 is commonly meant the IC50 on a negative log10 scale, so that one unit is a factor of ten. The low end stands for a high IC50, the high end for a low IC50. `COC(=O)C(c1ccccc1)N1CCN(c2ccc(NC(=O)c3ccccc3-c3ccc(C(F)(F)F)cc3)cc2)CC1` (stereo not drawn) [Co. No. 240]: the pIC50 came to 7.982.

The same assay, now with this note: Homo sapiens, HepG2, 24 h, 24 hours of incubation.
As a reminder, the IC50 is the point on the concentration scale where inhibition reaches its midpoint. As to `CCOC(=O)C(c1ccc(Cl)cc1)N1CCN(c2ccc(NC(=O)c3ccccc3-c3ccc(C(F)(F)F)cc3)cc2)CC1` (stereo not drawn) [Co. No. 262], the IC50 is 0.558 µM.
`CC(C)CCOC(=O)C(c1ccccc1)C1CCN(c2ccc(NC(=O)c3ccccc3-c3ccc(C(F)(F)F)cc3)cc2)CC1` (stereo not drawn) [Co. No. 249] showed an IC50 of more than 3 µM.
`O=C(Nc1ccc(N2CCC(C(C(=O)Nc3ccccc3)c3ccccc3)CC2)cc1)c1ccccc1COc1ccccc1` (stereo not drawn) [Co. No. 32] showed an IC50 of 2.39 µM.
`COC(=O)C(c1ccc(Cl)cc1Cl)N1CCN(c2ccc(NC(=O)c3ccccc3-c3ccc(C(F)(F)F)cc3)cc2)CC1` (stereo not drawn) [Co. No. 259]: the midpoint of inhibition, the IC50, lay at 0.42 µM.
For `COC(=O)C(c1ccccc1)C1CCN(c2ccc(NC(=O)c3cccc(C)c3-c3ccc(C(C)(C)C)cc3)cc2)CC1` (stereo not drawn) [Co. No. 237], the 50% inhibitory concentration (IC50) is less than 0.03 µM.
Compound `O=C(Nc1ccc(N2CCC(C(C(=O)Nc3ccccc3)c3ccccc3)CC2)cc1)c1ccccc1OCc1ccccc1` (stereo not drawn) [Co. No. 33] gave an IC50 not below 3 µM.
Take `O=C(Nc1ccc(N2CCC(C(C(=O)NCc3ccccc3)c3ccccc3)CC2)cc1)c1ccccc1Oc1ccccc1` (stereo not drawn) [Co. No. 9]: the concentration for half-maximal inhibition (IC50) was 0.221 µM.
`O=C(Nc1ccc(N2CCC(C(C(=O)NCc3ccccc3)c3ccccc3)CC2)cc1)c1ccccc1-c1cc(Cl)cc(Cl)c1` (stereo not drawn) [Co. No. 50] had a concentration for half-maximal inhibition (IC50) of 0.0938 µM.
As to `O=C(Nc1ccc(N2CCC(C(C(=O)NCc3ccccc3)c3ccccc3)CC2)cc1)c1ccccc1C(=O)c1ccccc1` (stereo not drawn) [Co. No. 5], the midpoint of inhibition, the IC50, lay at 0.158 µM.
Still for that read-out and setting: the figure for `COC(=O)C(c1ccccc1)N1CCN(c2ccc(NC(=O)c3ccc(Cl)cc3-c3ccc(C(F)(F)F)cc3)cc2)CC1` (stereo not drawn) [Co. No. 192] is 0.158 µM.
In turn, `CCCNC(=O)C(c1ccccc1)C1CCN(c2ccc(NC(=O)c3ccccc3-c3cc(Cl)cc(Cl)c3)cc2)CC1` (stereo not drawn) [Co. No. 97, 3′,5′-dichloro-N-[4-[4-[2-oxo-1-phenyl-2-(propylamino)ethyl]-1-piperidinyl]phenyl]-[1,1′-biphenyl]-2-carboxamide] gave a half-maximal inhibitory concentration (IC50) of 0.234 µM.
`C=CCOC(=O)C(c1ccccc1)N1CCC(c2ccc(NC(=O)c3ccccc3-c3ccccc3)cc2)CC1` (stereo not drawn) [Co. No. 154] gave a half-maximal inhibitory concentration (IC50) of 2.32 µM.
The compound `CCNC(=O)C(c1ccccc1)C1CCN(c2ccc(NC(=O)c3ccccc3-c3ccccc3C)cc2)CC1` (stereo not drawn) [Co. No. 85, N-[4-[4-[2-(ethylamino)-2-oxo-1-phenylethyl]-1-piperidinyl]phenyl]-2′-methyl-[1,1′-biphenyl]-2-carboxamide] had an IC50 of 0.129 µM.
Turning to `O=C(Nc1ccc(N2CCC(C(C(=O)NCc3ccccc3)c3ccc(F)cc3)CC2)cc1)c1ccccc1-c1ccc(C(F)(F)F)cc1` (stereo not drawn) [Co. No. 254], the IC50 was 0.0288 µM.
`CCCNC(=O)C(c1ccccc1)C1CCN(c2ccc(NC(=O)c3ccccc3-c3ccc4ccccc4c3)cc2)CC1` (stereo not drawn) [Co. No. 47] had an IC50 of 0.199 µM.
For the compound `CCNC(=O)C(c1ccccc1)N1CCN(c2ccc(NC(=O)c3ccccc3-c3ccc(C(F)(F)F)cc3)cc2C)CC1` (stereo not drawn) [Co. No. 218], the IC50 was less than 0.03 µM.
On the same count and under the same terms, the figure for `CC(C)NC(=O)C(c1ccccc1)C1CCN(c2ccc(NC(=O)c3ccccc3Oc3ccccc3)cc2)CC1` (stereo not drawn) [Co. No. 27] is 1.3 µM.
`CCCNC(=O)C(c1ccccc1)C1CCN(c2ccc(NC(=O)c3ccccc3Cc3ccccc3)cc2)CC1` (stereo not drawn) [Co. No. 20] showed a half-maximal inhibitory concentration (IC50) of 0.989 µM.
On to `C=CCNC(=O)C(c1ccccc1)N1CCN(c2ccc(NC(=O)c3ccccc3-c3ccccc3)cc2)CC1` (stereo not drawn) [Co. No. 148], for which the concentration for half-maximal inhibition (IC50) is 0.0604 µM.
The same measure, in the same setting: under `COC(=O)C(c1ccccc1)N1CCN(c2ccc(NC(=O)c3ccccc3-c3ccc(C(F)(F)F)cc3)c(F)c2)CC1` (stereo not drawn) [Co. No. 212] stands less than 0.03 µM; under `CCNC(=O)C(c1ccccc1)N1CCN(c2ccc(NC(=O)c3ccccc3-c3ccc(C(F)(F)F)cc3)cc2Cl)CC1` (stereo not drawn) [Co. No. 213], less than 0.03 µM.
Turning to `CCCNC(=O)C(c1ccccc1)C1CCN(c2ccc(NC(=O)c3ccccc3C(=O)c3ccccc3)cc2)CC1` (stereo not drawn) [Co. No. 15], half-maximal inhibition (IC50) was put at 0.205 µM.
Compound `O=C(Nc1ccc(N2CCC(C(C(=O)Nc3ccccc3)c3ccccc3)CC2)cc1)c1ccccc1-c1ccccc1` (stereo not drawn) [Co. No. 30] had a 50% inhibitory concentration (IC50) of 0.165 µM.
The compound `O=C(Nc1ccc(C2CCN(C(C(=O)NCc3cccnc3)c3ccccc3)CC2)cc1)c1ccccc1-c1ccc(C(F)(F)F)cc1` (stereo not drawn) [Co. No. 76] had an IC50 of 0.0518 µM.
Still for that read-out and setting: under `CCNC(=O)C(c1ccccc1)C1CCN(c2ccc(NC(=O)c3ccccc3-c3ccc(Cl)c(Cl)c3)cc2)CC1` (stereo not drawn) [Co. No. 88] stands not above 0.03 µM; under `CCNC(=O)C(c1ccccc1)C1CCN(c2ccc(NC(=O)c3ccccc3-c3cccc(N)c3)cc2)CC1` (stereo not drawn) [Co. No. 89], 0.363 µM; under `CCOC(=O)C(c1ccccc1)N1CCCN(c2ccc(NC(=O)c3ccccc3-c3ccc(C(F)(F)F)cc3)cc2)CC1` (stereo not drawn) [Co. No. 120], 0.357 µM.
On to `CCNC(=O)C(c1ccccc1)N1CCC(c2ccc(NC(=O)c3ccccc3-c3ccc(C(F)(F)F)cc3)cc2)CC1` (stereo not drawn) [Co. No. 69, N-[4-[1-[2-(ethylamino)-2-oxo-1-phenylethyl]-4-piperidinyl]phenyl]-4′-(trifluoromethyl)-[1,1′-biphenyl]-2-carboxamide], for which half-maximal inhibition (IC50) was put at 0.00889 µM.
In turn, `COC(=O)C(c1ccccc1)N1CCN(c2ccc(NC(=O)c3ccc(C)cc3-c3ccc(C(F)(F)F)cc3)cc2)CC1` (stereo not drawn) [Co. No. 184] gave a concentration for half-maximal inhibition (IC50) of 0.00313 µM.
`C=CCNC(=O)C(c1ccccc1)N1CCC(c2ccc(NC(=O)c3ccccc3-c3ccc(C(F)(F)F)cc3)cc2)CC1` (stereo not drawn) [Co. No. 71] gave an IC50 of 0.0103 µM.
`O=C(Nc1ccc(N2CCC(C(C(=O)Nc3ccccc3)c3ccccc3)CC2)cc1)c1cccc2c1-c1ccccc1C2` (stereo not drawn) [Co. No. 129] gave an IC50 of 2.77 µM.
`O=C(Nc1ccc(N2CCN(C(C(=O)Nc3ccccc3)c3ccccc3)CC2)cc1)c1ccccc1-c1ccc(C(F)(F)F)cc1` (stereo not drawn) [Co. No. 140] gave a half-inhibitory concentration (IC50) of 0.0203 µM.
For the compound `CC(C)(C)c1ccc(-c2ccccc2C(=O)Nc2ccc(N3CCC(C(C(=O)NCc4ccccc4)c4ccc(F)cc4)CC3)cc2)cc1` (stereo not drawn) [Co. No. 255], the IC50 is 0.00504 µM.
Turning to `CCCNC(=O)C(c1ccccc1)C1CCN(c2ccc(NC(=O)c3ccccc3-c3ccccc3OC)cc2)CC1` (stereo not drawn) [Co. No. 43], the half-inhibitory concentration (IC50) was 1.77 µM.
On to `CC(C)OC(=O)C(c1ccccc1)N1CCC(c2ccc(NC(=O)c3ccccc3-c3ccc(C(F)(F)F)cc3)cc2)CC1` (stereo not drawn) [Co. No. 223], for which the half-inhibitory concentration (IC50) is 0.37 µM.
`O=C(Nc1ccc(N2CCN(C(C(=O)NCc3cccnc3)c3ccccc3)CC2)cc1)c1ccccc1-c1ccc(C(F)(F)F)cc1` (stereo not drawn) [Co. No. 59] gave an IC50 not above 0.03 µM.
On to `CCNC(=O)C(c1ccc(F)cc1)C1CCN(c2ccc(NC(=O)c3ccccc3-c3ccc(C(C)(C)C)cc3)cc2)CC1` (stereo not drawn) [Co. No. 257], for which the IC50 is 0.0139 µM.
Compound `CCCNC(=O)C(c1ccccc1)C1CCN(c2ccc(NC(=O)c3ccccc3-c3cccc(Cl)c3)cc2)CC1` (stereo not drawn) [Co. No. 82] showed an IC50 of 0.0975 µM.
Still for that read-out and setting: under `CCC(CC)OC(=O)C(c1ccccc1)N1CCC(c2ccc(NC(=O)c3ccccc3-c3ccc(C(F)(F)F)cc3)cc2)CC1` (stereo not drawn) [Co. No. 224] stands 0.557 µM; under `CCNC(=O)C(c1ccccc1)C1CCN(c2ccc(NC(=O)c3ccccc3-c3cccc(C(F)(F)F)c3)cc2)CC1` (stereo not drawn) [Co. No. 96], 0.0321 µM.
With `O=C(Nc1ccc(C2CCN(C(C(=O)Nc3ccccc3)c3ccccc3)CC2)cc1)c1ccccc1-c1ccccc1` (stereo not drawn) [Co. No. 162], the IC50 is 0.0966 µM.
Same read-out and setting: the figure for `CCNC(=O)C(c1ccccc1)C1CCN(c2ccc(NC(=O)c3ccccc3-c3ccccc3OC)cc2)CC1` (stereo not drawn) [Co. No. 135] is 0.149 µM; for `O=C(Nc1ccc(N2CCC(C(C(=O)Nc3ccccc3)c3ccccc3)CC2)cc1)c1ccccc1-c1ccc(C(F)(F)F)cc1` (stereo not drawn) [Co. No. 36] it is not above 0.03 µM.
On to `O=C(Nc1ccc(N2CCC(C(C(=O)Nc3ccccc3)c3ccccc3)CC2)cc1)c1ccccc1-c1ccc(Cl)c(Cl)c1` (stereo not drawn) [Co. No. 110], for which the IC50 was 0.158 µM.
For the compound `CCNC(=O)C(c1ccccc1)C1CCN(c2ccc(NC(=O)c3ccccc3-c3ccccc3)cc2)CC1` (stereo not drawn) [Co. No. 180], inhibition was half-maximal at 0.114 µM (IC50).
For the compound `CCNC(=O)C(c1ccccc1)N1CCN(c2ccc(NC(=O)c3ccccc3-c3ccc(Cl)cc3)cc2)CC1` (stereo not drawn) [Co. No. 160], the concentration for half-maximal inhibition (IC50) is 0.0324 µM.
`CC(C)NC(=O)C(c1ccccc1)C1CCN(c2ccc(NC(=O)c3ccccc3CSc3ccccc3)cc2)CC1` (stereo not drawn) [Co. No. 24] had an IC50 of 0.847 µM.
Consider `O=C(Nc1ccc(N2CCC(C(C(=O)Oc3ccccc3)c3ccccc3)CC2)cc1)c1ccccc1-c1ccccc1` (stereo not drawn) [Co. No. 178], for which the 50% inhibitory concentration (IC50) was 0.0343 µM.
On to `O=C(Nc1ccc(C2CCN(C(C(=O)OCCc3ccccc3)c3ccccc3)CC2)cc1)c1ccccc1-c1ccc(C(F)(F)F)cc1` (stereo not drawn) [Co. No. 266], for which the IC50 was 0.0256 µM.
Still for that read-out and setting: under `Cc1ccccc1-c1ccccc1C(=O)Nc1ccc(N2CCC(C(C(=O)NCc3ccccc3)c3ccccc3)CC2)cc1` (stereo not drawn) [Co. No. 51] stands 0.0687 µM; under `O=C(Nc1ccc(N2CCN(C(C(=O)Nc3ccccc3)c3ccccc3)CC2)cc1)c1ccccc1-c1ccccc1` (stereo not drawn) [Co. No. 145], 0.185 µM; under `CCNC(=O)C(c1ccccc1)N1CCN(c2ccc(NC(=O)c3ccccc3-c3ccc(C(F)(F)F)cc3)c(C)c2)CC1` (stereo not drawn) [Co. No. 215], less than 0.03 µM.
For the compound `CCCNC(=O)C(c1ccccc1)C1CCN(c2ccc(NC(=O)c3ccccc3-c3ccc(OC)cc3)cc2)CC1` (stereo not drawn) [Co. No. 46], the IC50 was 0.461 µM.
Still for that read-out and setting: the figure for `CC(C)CNC(=O)C(c1ccccc1)N1CCC(c2ccc(NC(=O)c3ccccc3-c3ccc(C(F)(F)F)cc3)cc2)CC1` (stereo not drawn) [Co. No. 74] is not above 0.03 µM.
`CCNC(=O)C(c1ccccc1)N1CCN(c2ccc(NC(=O)c3cc(OC)c(OC)cc3-c3ccc(C(F)(F)F)cc3)cc2)CC1` (stereo not drawn) [Co. No. 202] had a half-inhibitory concentration (IC50) of 0.184 µM.
On to `CCCNC(=O)C(c1ccccc1)C1CCN(c2ccc(NC(=O)c3ccccc3OCc3ccccc3)cc2)CC1` (stereo not drawn) [Co. No. 18], for which it took 0.206 µM to reach half-maximal inhibition (IC50).
